Drawing on DBAASP, this text covers MIC for four molecules.

Some test systems named below: Escherichia coli K-12; Candida albicans CAN105; Escherichia coli UB1005; Escherichia coli O111:B4; Corynebacterium xerosis; Escherichia coli BW25113; Escherichia coli.
Assay in all cases: ≥ marks a high value that may be exact or a test limit, other limits are often not marked, values filed in µg/mL are converted to µM
Experiment [1] relates to Pseudomonas aeruginosa PA287.
For experiment [2], the system named is Pseudomonas aeruginosa PAO1.
Experiment [3] concerns Pseudomonas aeruginosa PA214.
For experiment [4], the system named is Burkholderia cepacia ATCC 25416.
Experiment [5] deals with Staphylococcus aureus ATCC 25923.
Experiment [6] relates to Staphylococcus aureus SAP 0017.
Experiment [7] deals with Enterobacter cloacae ATCC 13047.
The test system of experiment [8] is Pseudomonas aeruginosa ATCC 27853.
In experiment [9] the test system is Pseudomonas aeruginosa H187.
Experiment [10] deals with Listeria monocytogenes NCTC 7973.
The subject of experiment [11] is Staphylococcus aureus K147.
Experiment [12] has as its system Acinetobacter calcoaceticus ATCC 23055.
The subject of experiment [13] is Salmonella enterica subsp. enterica serovar Typhimurium ATCC 14028s.
The test system of experiment [14] is Pseudomonas aeruginosa H103.
For experiment [15], the system named is Staphylococcus epidermidis.
The subject of experiment [16] is Stenotrophomonas maltophilia ATCC 13637.
The test system of experiment [17] is Pseudomonas aeruginosa H547.
In experiment [18] the test system is Pseudomonas aeruginosa K799.
Experiment [19] concerns Pseudomonas aeruginosa H374.
Experiment [20] concerns Staphylococcus haemolyticus.
Experiment [21] relates to Pseudomonas aeruginosa H744.
For experiment [22], the system named is Enterococcus faecalis ATCC 29212.
For experiment [23], the system named is Pseudomonas aeruginosa Z61.
In experiment [24] the test system is Streptococcus pyogenes ATCC 19615.
Experiment [25] concerns Salmonella typhimurium KCTC 1926.
Experiment [26] deals with Acinetobacter baumannii CCARM 12035.
The test system of experiment [27] is Escherichia coli CCARM 1229.
The test system of experiment [28] is Staphylococcus aureus KCTC 1621.
The test system of experiment [29] is Pseudomonas aeruginosa KCTC 1637.
The test system of experiment [30] is Escherichia coli KCTC 1682.
For experiment [31], the system named is Bacillus subtilis KCTC 3068.
Experiment [32] concerns Enterococcus faecalis KCTC 2011.
Experiment [33] has as its system Pseudomonas aeruginosa CCARM 2095.
Experiment [34] deals with Salmonella typhimurium CCARM 8009.
The subject of experiment [35] is Klebsiella pneumoniae ATCC 700603.
The test system of experiment [36] is Acinetobacter baumannii ATCC 19606.
For experiment [37], the system named is Escherichia coli BW25113 ΔsbmA.

≈ marks a conversion by molar mass, not a printed value. Where “and” joins values, the source holds several entries; their conditions need not be identical. Identical values can stand only once.

Turning to `C[C@H](NC(=O)[C@H](C)NC(=O)[C@H](CCCCN)NC(=O)[C@H](Cc1ccccc1)NC(=O)[C@H](C)NC(=O)[C@H](CCCCN)NC(=O)[C@H](C)NC(=O)[C@H](Cc1c[nH]c2ccccc12)NC(=O)[C@H](C)NC(=O)[C@H](CCCCN)NC(=O)[C@H](C)NC(=O)[C@H](Cc1ccccc1)NC(=O)[C@H](C)NC(=O)[C@H](C)NC(=O)[C@H](CCCCN)NC(=O)[C@H](CCCCN)NC(=O)[C@@H](N)CCCCN)C(N)=O` [KKKAAFAKAWAKAFKAA], the MIC (usually the lowest concentration that inhibits growth of the organism) with Escherichia coli K-12 was 25 µM (≈ 45.9 µg/mL); in experiment [1], at least 50 µM; in [2], 50 µM (≈ 91.8 µg/mL); in experiment [3] it was at least 50 µM.

As for `CC[C@H](C)[C@H](NC(=O)[C@H](CC(C)C)NC(=O)[C@H](C)NC(=O)[C@@H]1CCCN1C(=O)[C@H](CC(C)C)NC(=O)CNC(=O)[C@@H](NC(=O)[C@@H](NC(=O)[C@H](CC(C)C)NC(=O)[C@@H](NC(=O)[C@H](CCCCN)NC(=O)[C@H](CCCCN)NC(=O)[C@@H](NC(=O)[C@H](C)NC(=O)[C@@H](NC(=O)[C@@H](NC(=O)[C@H](CC(C)C)NC(=O)[C@H](CCCCN)NC(=O)[C@H](CCCCN)NC(=O)[C@@H](NC(=O)[C@H](Cc1ccccc1)NC(=O)[C@H](CO)NC(=O)[C@H](CCCCN)NC(=O)[C@H](Cc1c[nH]c2ccccc12)NC(=O)[C@@H](N)CCCCN)[C@@H](C)CC)[C@@H](C)O)[C@@H](C)O)C(C)C)C(C)C)[C@@H](C)O)[C@@H](C)O)C(=O)N[C@@H](CO)C(=O)O` [KWKSFIKKLTTAVKKVLTTGLPALIS], the MIC in [4] turned out to be 22.3 µM (≈ 64 µg/mL); in [5], 2.79 µM (≈ 8 µg/mL); in experiment [6], 2.79 µM (≈ 8 µg/mL); in [7], 0.696 µM (≈ 2 µg/mL); in experiment [8], 5.57 µM (≈ 16 µg/mL); in [9], 5.57 µM (≈ 16 µg/mL). Besides, the minimal inhibitory concentration (MIC) in [10] was 1.39 µM (≈ 4 µg/mL); in experiment [11] it was 11.1 µM (≈ 32 µg/mL); in experiment [12] it was 1.39 µM (≈ 4 µg/mL); in experiment [13] it was 0.696 µM (≈ 2 µg/mL); in experiment [14] it was 1.39 µM (≈ 4 µg/mL); in experiment [15] it was 5.57 µM (≈ 16 µg/mL). Moreover, the MIC in experiment [16] was found to be 1.04 µM (≈ 3 µg/mL); in experiment [17], 0.696 µM (≈ 2 µg/mL); against Candida albicans CAN105, 11.1 µM (≈ 32 µg/mL); in experiment [18], 2.09 µM (≈ 6 µg/mL); against Escherichia coli UB1005, 0.696 µM (≈ 2 µg/mL); in experiment [19], 0.696 µM (≈ 2 µg/mL). Further, the MIC was 2.79 µM and 5.57 µM in [20]; 0.696 µM (≈ 2 µg/mL) in [21]; 0.696 µM (≈ 2 µg/mL) in the experiment with Escherichia coli O111:B4; 22.3 µM (≈ 64 µg/mL) in experiment [22]; 0.696 µM (≈ 2 µg/mL) in the experiment on Corynebacterium xerosis; 1.04 µM (≈ 3 µg/mL) in [23]. The molecule also gave an MIC in [24] of 2.79 µM (≈ 8 µg/mL).

On to `CC[C@H](C)[C@H](NC(=O)CNC(=O)[C@H](CC(=O)O)NC(=O)[C@H](CCCN=C(N)N)NC(=O)[C@@H](NC(=O)[C@H](CC(N)=O)NC(=O)[C@H](CCCN=C(N)N)NC(=O)CNC(=O)[C@@H](NC(=O)[C@H](CCCCN)NC(=O)[C@H](CCC(=O)O)NC(=O)[C@@H](NC(=O)[C@H](CCCCN)NC(=O)[C@H](CCCCN)NC(=O)[C@H](C)NC(=O)[C@@H](NC(=O)[C@H](CCCCN)NC(=O)[C@H](C)NC(=O)[C@@H](N)CCCN=C(N)N)[C@@H](C)CC)[C@@H](C)CC)C(C)C)C(C)C)C(=O)N[C@H](C(=O)N[C@@H](CCCCN)C(=O)N[C@@H](C)C(N)=O)[C@@H](C)CC` [RAKIAKKIEKVGRNVRDGIIKA], for which the MIC in experiment [25] is 4 µM (≈ 9.85 µg/mL); in experiment [26] it was at least 32 µM; in [27], 4 µM (≈ 9.85 µg/mL); in experiment [28], at least 128 µM; in experiment [29], 8 µM (≈ 19.7 µg/mL); in experiment [30], 2 µM (≈ 4.93 µg/mL). For the same molecule, the MIC was at least 128 µM in experiment [31], at least 128 µM in [32], 16 µM (≈ 39.4 µg/mL) in experiment [33] and 8 µM (≈ 19.7 µg/mL) in [34].

In the case of `CC[C@H](C)[C@H](NC(=O)[C@@H]1CCCN1C(=O)[C@H](Cc1c[nH]c2ccccc12)NC(=O)[C@H](CCCN=C(N)N)NC(=O)[C@H](Cc1ccccc1)NC(=O)[C@@H](N)CCCN=C(N)N)C(=O)N[C@@H](CCCN=C(N)N)C(=O)N[C@@H](CCCN=C(N)N)C(=O)N1CCC[C@H]1C(=O)N1CCC[C@H]1C(=O)N[C@H](C(=O)N[C@@H](CCCN=C(N)N)C(=O)N1CCC[C@H]1C(=O)N1CCC[C@H]1C(=O)N[C@@H](Cc1ccccc1)C(=O)N[C@@H](Cc1ccc(O)cc1)C(=O)N[C@@H](CCCN=C(N)N)C(=O)O)[C@@H](C)CC` [RFRWPIRRPPIRPPFYR], the MIC was above 64 µM in experiment [5]; 64 µM (≈ 148 µg/mL) in experiment [8]; 24 µM (≈ 55.5 µg/mL) in experiment [35]; 8 µM (≈ 18.5 µg/mL) in experiment [36]; 4 µM (≈ 9.24 µg/mL) against Escherichia coli BW25113; 2.83 µM (≈ 6.54 µg/mL) against Escherichia coli. In addition, the MIC in experiment [37] was found to be 8 µM (≈ 18.5 µg/mL).
